PubChem BioAssay (NCI)
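Compound exposure: 48 hours, 5 concentrations, 96-well plates. The concentration for 50% growth inhibition is given as GI50. At the TGI there is no net growth.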

Experiments:
Test in all cases: growth of human tumour cells (NCI), 48 h
SNB-75 CNS = test system: SNB-75 CNS
HOP-62 NSCLC = test system: HOP-62 NSCLC
HCT-116 colon = test system: HCT-116 colon
NCI-H23 lung = test system: NCI-H23 lung
K-562 leukemia = test system: K-562 leukemia
UO-31 renal = test system: UO-31 renal
OVCAR-3 ovarian = test system: OVCAR-3 ovarian
UACC-257 melanoma = test system: UACC-257 melanoma
NCI-H522 lung = test system: NCI-H522 lung
HS 578T breast = test system: HS 578T breast

Row | SMILES | GI50 (SNB-75 CNS) [µM] | TGI (SNB-75 CNS) [µM] | GI50 (HOP-62 NSCLC) [µM] | TGI (HOP-62 NSCLC) [µM] | GI50 (HCT-116 colon) [µM] | TGI (HCT-116 colon) [µM] | GI50 (NCI-H23 lung) [µM] | TGI (NCI-H23 lung) [µM] | GI50 (K-562 leukemia) [µM] | TGI (K-562 leukemia) [µM] | GI50 (UO-31 renal) [µM] | TGI (UO-31 renal) [µM] | GI50 (OVCAR-3 ovarian) [µM] | TGI (OVCAR-3 ovarian) [µM] | GI50 (UACC-257 melanoma) [µM] | TGI (UACC-257 melanoma) [µM] | GI50 (NCI-H522 lung) [µM] | TGI (NCI-H522 lung) [µM] | GI50 (HS 578T breast) [µM] | TGI (HS 578T breast) [µM]
1 | O=C(NC1CCN(Cc2ccccc2)CC1)c1cc(C(=O)NC2CCN(Cc3ccccc3)CC2)cc(C(=O)NC2CCN(Cc3ccccc3)CC2)c1 | 1.48 | 7.42 | 9.33 | 19.7 | 3.51 | 14 | 7.78 | 15.7 | 2 | > 50 | > 50 | > 50 | 10.7 | 44.6 | 8.08 | 16.5 | 2.03 | 10.1 | 7.26 | 16.9
2 | O=c1ccccc(-c2ccc(-c3ccco3)cc2)c1O | 0.994 | > 100 | 0.694 | 12.9 | 0.582 | 15.8 | 1.22 | 15 | 0.603 | > 100 | 0.598 | 8.42 | 0.415 | 26.3 | 1.6 | 18.8 | 4.07 | 45.8 | 4.94 | 76.9
3 | CC(C)(C)N1CC(OC(N)=O)C1 | > 100 | > 100 | > 100 | > 100 | > 100 | > 100 | > 100 | > 100 | > 100 | > 100 | > 100 | > 100 | > 100 | > 100 | > 100 | > 100 | > 100 | > 100 | > 100 | > 100
4 | N#Cc1nn(C2OC(COC(=O)c3ccccc3)C(OC(=O)c3ccccc3)C2OC(=O)c2ccccc2)c2nc[nH]c(=O)c12 (stereo not given) | – | > 100 | – | > 100 | – | > 100 | – | > 100 | – | > 100 | – | > 100 | – | > 100 | – | > 100 | – | > 100 | – | > 100
5 | Oc1cccc(Cn2c(-c3cccc(O)c3O)nc3ccccc32)c1O | 26.2 | > 100 | 3.77 | 38.7 | 2.24 | 10.9 | 3.02 | 14.1 | 5.56 | > 100 | 12.8 | > 100 | 0.0683 | 0.76 | 19.3 | 50.1 | 7.88 | 49.1 | 26.9 | > 100
6 | O=C1/C(=C/c2ccccc2)CN(CCC(=O)N2C/C(=C\c3ccccc3)C(=O)/C(=C/c3ccccc3)C2)C/C1=C\c1ccccc1 | 10.7 | 35.3 | 19.2 | 49.1 | 0.346 | 4.17 | 11.5 | 33.5 | 0.494 | > 100 | 7.51 | 21.7 | 3.07 | 19.2 | 24.6 | > 100 | 14.6 | 62.7 | 10.7 | 55.4
7 | O=C(O[C@H]1CN[C@H](C#Cc2cc3ncnc(Nc4ccc(OCc5cccc(F)c5)c(Cl)c4)c3s2)C1)N1CCOCC1 | 7.73 | > 25 | > 13 | > 25 | 7.99 | > 25 | 9.7 | > 25 | 11.1 | > 25 | 4.41 | > 15.8 | 4.12 | 11.1 | > 19.1 | > 25 | 1.41 | 8.12 | 7.23 | > 25
8 | COc1ccccc1N1CCN(C(=O)c2ccc(NS(=O)(=O)c3cccc4cccnc34)cc2)CC1 | 10.1 | > 53.7 | > 49.7 | > 100 | > 94.2 | > 100 | > 67.2 | > 100 | > 100 | > 100 | > 100 | > 100 | > 100 | > 100 | > 100 | > 100 | 22.2 | > 88.5 | > 46.4 | 99.4
9 | COc1ccc(-c2nc(N)c3ncn(C4OC(CO)C(O)C4O)c3n2)cc1 (stereo not given) | – | > 100 | – | > 100 | – | > 100 | – | > 100 | – | > 100 | – | – | – | > 100 | – | > 100 | – | > 100 | – | > 100
10 | C[C@@H](Oc1cc(NS(=O)(=O)N2CCC2)nc(SCc2cccc(F)c2F)n1)[C@@H](O)CO | > 100 | > 100 | > 100 | > 100 | > 100 | > 100 | > 100 | > 100 | > 100 | > 100 | > 100 | > 100 | > 100 | > 100 | > 100 | > 100 | > 100 | > 100 | > 100 | > 100
11 | O=C1/C(=C/c2ccccc2Br)COc2ccc(O)c(O)c21 | 1.47 | 6.92 | 2.29 | 6.54 | 1.31 | 2.78 | 1.83 | 4.17 | 0.339 | > 100 | 0.804 | 2.07 | 0.557 | 1.83 | 1.53 | 5.17 | 0.196 | 0.494 | 3.28 | 21.5
12 | N#C/C(=C/C=C/c1ccccc1)S(=O)c1ccccc1 (stereo not given) | 0.904 | 3.01 | 1.29 | 5.36 | – | – | 0.461 | 2.31 | 0.32 | 90.8 | 0.4 | 3.08 | 0.307 | 1.13 | 0.845 | 2.41 | 0.306 | 1.35 | 2.95 | 39.8
13 | Cc1ccc2c(N/N=C\c3ccco3)cc(C)nc2n1 | 11.4 | 26.4 | 10 | 24.4 | 2.95 | 11 | – | – | 3.02 | 11.2 | 2 | 5.24 | 2.81 | 7.49 | 2.79 | 8.72 | 2.92 | 9.84 | 5.83 | 29.6
